Results published in patent US20240400553A1, “AMINE BASED MATRIPTASE 2 INHIBITORS AND USES THEREOF” (Disc Medicine, Inc., priority 2023, published 2024).

Biological target: T1, Human Recombinant Matriptase 2 (Homo sapiens, UniProt Q8IU80)
T1 construct: made in house
T1 sequence (Q8IU80 1-811): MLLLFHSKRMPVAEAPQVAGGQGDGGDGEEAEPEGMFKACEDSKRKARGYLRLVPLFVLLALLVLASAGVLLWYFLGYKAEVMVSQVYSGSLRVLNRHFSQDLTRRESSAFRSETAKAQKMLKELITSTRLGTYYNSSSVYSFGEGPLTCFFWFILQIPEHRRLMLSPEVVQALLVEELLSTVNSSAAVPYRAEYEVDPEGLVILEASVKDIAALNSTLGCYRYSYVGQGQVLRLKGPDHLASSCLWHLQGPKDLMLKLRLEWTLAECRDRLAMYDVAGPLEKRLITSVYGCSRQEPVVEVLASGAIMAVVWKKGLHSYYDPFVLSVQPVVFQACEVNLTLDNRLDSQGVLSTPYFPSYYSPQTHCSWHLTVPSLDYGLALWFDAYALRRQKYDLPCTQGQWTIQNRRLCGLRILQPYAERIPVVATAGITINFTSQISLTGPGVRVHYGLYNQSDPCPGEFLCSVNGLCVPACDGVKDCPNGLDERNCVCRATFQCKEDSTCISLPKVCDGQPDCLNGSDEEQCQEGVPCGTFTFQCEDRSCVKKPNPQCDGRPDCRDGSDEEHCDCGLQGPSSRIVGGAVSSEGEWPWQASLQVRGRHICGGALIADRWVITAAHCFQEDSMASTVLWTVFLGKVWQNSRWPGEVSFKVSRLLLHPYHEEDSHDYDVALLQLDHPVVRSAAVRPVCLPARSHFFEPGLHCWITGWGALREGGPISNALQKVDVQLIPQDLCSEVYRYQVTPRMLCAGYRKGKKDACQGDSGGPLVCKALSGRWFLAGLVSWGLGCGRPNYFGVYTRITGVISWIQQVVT
Assay: Matriptase 2 inhibition, fluorescence based assay (Method I)
Assay type: biochemical
Conditions: Table A; Ki of Matriptase-2; read-out: Mat-2 Ki
Summary of the method: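 In-house recombinant enzyme (3.5 nM), preincubated 30 min with compound, then Boc-Gln-Ala-Arg-AMC substrate (62 μM) in 50 mM Tris pH 7.5, 150 mM NaCl, 0.01% gelatin, 1% DMSO, 25 °C. Fluorescence (Ex 360/Em 480 nm) read 60 min after substrate; IC50 from variable-slope sigmoidal fit of % inhibition.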

Ki, ≤ 100 nM:
Cn1cncc1COC(=O)c1cc2ccc(CN)nc2n1Cc1cc(NS(=O)(=O)Cc2ccccc2)cc2ccccc12 [Compound 20, (1-methyl-1H-imidazol-5-yl)methyl 6-(amino-methyl)-1-{[3-(phenyl-methanesulfonamido)-naphthalen-1-yl]methyl}-1H-pyrrolo[2,3-b]pyr-idine-2-carboxylate]
NCc1ccc2cc(C(=O)OCC3CCN(CC4CC4)CC3)n(Cc3cc(NS(=O)(=O)Cc4ccccc4)cc4ccccc34)c2n1 [Compound 21, [1-(cyclopropylmeth-yl)piperidin-4-yl]methyl 6-(aminomethyl)-1-{[3-(phenylmethanesulfon-amido)naphthalen-1-yl]-methyl}-1H-pyrrolo[2,3-b]pyridine-2-carboxylate]
NCc1ccc2cc(C(=O)OC[C@H]3COCCN3)n(Cc3cc(NS(=O)(=O)Cc4ccccc4)cc4ccccc34)c2n1 [Compound 22, [(3R)-morpholin-3-yl]-methyl 6-(aminomethyl)-1-{[3-(phenylmethane-sulfonamido)naphthalen-1-yl]methyl}-1H-pyr-rolo[2,3-b]pyridine-2-carboxylate]
CN(C)CCCCOC(=O)c1cc2ccc(CN)nc2n1Cc1cc(NS(=O)(=O)Cc2ccccc2)cc2ccccc12 [Compound 25, 4-(dimethylamino)butyl 6-(aminomethyl)-1-{[3-(phenylmethanesulfon-amido)naphthalen-1-yl]-methyl}-1H-pyrrolo[2,3-b]pyridine-2-carboxylate]
CN1CCC(CN(C)C(=O)c2cc3ccc(CN)nc3n2Cc2cc(NS(=O)(=O)Cc3ccccc3)cc3ccccc23)CC1 [Compound 26, 6-(aminomethyl)-N-methyl-N-[(1-methyl-piperidin-4-yl)methyl]-1-{[3-(phenylmethane-sulfonamido)naphthalen-1-yl]methyl}-1H-pyr-rolo[2,3-b]pyridine-2-carboxamide]
C[C@@H](COC(=O)c1cc2ccc(CN)nc2n1Cc1cc(NS(=O)(=O)Cc2ccccc2)cc2ccccc12)N(C)C [Compound 27, (2S)-2-(dimethylamino)-propyl 6-(aminomethyl)-1-{[3-(phenylmethane-sulfonamido)naphthalen-1-yl]methyl}-1H-pyr-rolo[2,3-b]pyridine-2-carboxylate]
CC(C)(C)n1cncc1COC(=O)c1cc2ccc(CN)nc2n1Cc1cc(NS(=O)(=O)Cc2ccccc2)cc2ccccc12 [Compound 29, (1-tert-butyl-1H-imid-azol-5-yl)methyl 6-(aminomethyl)-1-{[3-(phenylmethanesulfon-amido)naphthalen-1-yl]-methyl}-1H-pyrrolo[2,3-b]pyridine-2-carboxylate]
CCC1(COC(=O)c2cc3ccc(CN)nc3n2Cc2cc(NS(=O)(=O)Cc3ccccc3)cc3ccccc23)CCN(C)CC1 [Compound 31, (4-ethyl-1-methylpiper-idin-4-yl)methyl 6-(aminomethyl)-1-{[3-(phenylmethanesulfon-amido)naphthalen-1-yl]-methyl}-1H-pyrrolo[2,3-b]pyridine-2-carboxylate]
NCc1ccc2cc(C(=O)OCCN3CCNCC3)n(Cc3cc(NS(=O)(=O)Cc4ccccc4)cc4ccccc34)c2n1 [Compound 33, 2-(piperazin-1-yl)ethyl 6-(aminomethyl)-1-{[3-(phenylmethanesulfon-amido)naphthalen-1-yl]-methyl}-1H-pyrrolo[2,3-b]pyridine-2-carboxylate]
CN(C)CCCCCOC(=O)c1cc2ccc(CN)nc2n1Cc1cc(NS(=O)(=O)Cc2ccccc2)cc2ccccc12 [Compound 34, 5-(dimethylamino)pentyl 6-(aminomethyl)-1-{[3-(phenylmethanesulfon-amido)naphthalen-1-yl]-methyl}-1H-pyrrolo[2,3-b]pyridine-2-carboxylate]
CNCCCOC(=O)c1cc2ccc(CN)nc2n1Cc1cc(NS(=O)(=O)Cc2ccccc2)cc2ccccc12 [Compound 35, 3-(methylamino)propyl 6-(aminomethyl)-1-{[3-(phenylmethanesulfon-amido)naphthalen-1-yl]-methyl}-1H-pyrrolo[2,3-b]pyridine-2-carboxylate]
NCc1ccc2cc(C(=O)OC[C@H]3CNCCO3)n(Cc3cc(NS(=O)(=O)Cc4ccccc4)cc4ccccc34)c2n1 [Compound 36]
CN(C)C(=O)CCCNC(=O)c1cc2ccc(CN)nc2n1Cc1cc(NS(=O)(=O)Cc2ccccc2)cc2ccccc12 [Compound 38, 4-{[6-(aminomethyl)-1-{[3-(phenylmethane-sulfonamido)naphthalen-1-yl]methyl}-1H-pyr-rolo[2,3-b]pyridin-2-yl]-formamido}-N,N-dimethylbutanamide]
CN1CCC(CCOC(=O)c2cc3ccc(CN)nc3n2Cc2cc(NS(=O)(=O)Cc3ccccc3)cc3ccccc23)CC1 [Compound 39, 2-(1-methylpiperidin-4-yl)ethyl 6-(aminometh-yl)-1-{[3-(phenylmeth-anesulfonamido)naph-thalen-1-yl]methyl}-1H-pyrrolo[2,3-b]pyridine-2-carboxylate]
CC(C)(CN)COC(=O)c1cc2ccc(CN)nc2n1Cc1cc(NS(=O)(=O)Cc2ccccc2)cc2ccccc12 [Compound 40, 3-amino-2,2-dimethyl-propyl 6-(aminomethyl)-1-{[3-(phenylmethane-sulfonamido)naphthalen-1-yl]methyl}-1H-pyrrolo-[2,3-b]pyridine-2-car-boxylate]
CN1CCC(COC(=O)c2cc3ccc(CN)nc3n2Cc2cc(NS(=O)(=O)C(F)(F)c3ccccc3)cc3ccccc23)CC1 [Compound 42, (1-methylpiperidin-4-yl)methyl 6-(aminometh-yl)-1-({3-[difluoro(phen-yl)methanesulfonamido]-naphthalen-1-yl}meth-yl)-1H-pyrrolo[2,3-b]-pyridine-2-carboxylate]
CC(C)CN1CCC(COC(=O)c2cc3ccc(CN)nc3n2Cc2cc(NS(=O)(=O)Cc3ccccc3)cc3ccccc23)CC1 [Compound 43, [1-(2-methylpropyl)-piperidin-4-yl]methyl 6-(aminomethyl)-1-{[3-(phenylmethanesulfon-amido)naphthalen-1-yl]-methyl}-1H-pyrrolo[2,3-b]pyridine-2-carboxylate]
CN1CCC(CCNC(=O)c2cc3ccc(CN)nc3n2Cc2cc(NS(=O)(=O)Cc3ccccc3)cc3ccccc23)CC1 [Compound 44, 6-(aminomethyl)-N-[2-(1-methylpiperidin-4-yl)ethyl]-1-{[3-(phenyl-methanesulfonamido)-naphthalen-1-yl]methyl}-1H-pyrrolo[2,3-b]pyr-idine-2-carboxamide]
CC(C)(C)n1ccnc1COC(=O)c1cc2ccc(CN)nc2n1Cc1cc(NS(=O)(=O)Cc2ccccc2)cc2ccccc12 [Compound 46, (1-tert-butyl-1H-imid-azol-2-yl)methyl 6-(aminomethyl)-1-{[3-(phenylmethanesulfon-amido)naphthalen-1-yl]-methyl}-1H-pyrrolo[2,3-b]pyridine-2-carboxylate]
CN(C)CCCOC(=O)c1cc2ccc(CN)nc2n1Cc1cc(NS(=O)(=O)Cc2ccccc2)cc2ccccc12 [Compound 47, 3-(dimethylamino)prop-yl 6-(aminomethyl)-1-{[3-(phenylmethane-sulfonamido)naphthalen-1-yl]methyl}-1H-pyr-rolo[2,3-b]pyridine-2-carboxylate]
CN(C)CCOC(=O)c1cc2ccc(CN)nc2n1Cc1cc(NS(=O)(=O)Cc2ccccc2)cc2ccccc12 [Compound 49, 2-(dimethylamino)ethyl 6-(aminomethyl)-1-{[3-(phenylmethanesulfon-amido)naphthalen-1-yl]-methyl}-1H-pyrrolo[2,3-b]pyridine-2-carboxylate]
NCc1ccc2cc(C(=O)OCCN3CCOCC3)n(Cc3cc(NS(=O)(=O)Cc4ccccc4)cc4ccccc34)c2n1 [Compound 50, 2-(morpholin-4-yl)ethyl 6-(aminomethyl)-1-{[3-(phenylmethanesulfon-amido)naphthalen-1-yl]-methyl}-1H-pyrrolo[2,3-b]pyridine-2-carboxylate]
CC(C)N(C)CCOC(=O)c1cc2ccc(CN)nc2n1Cc1cc(NS(=O)(=O)Cc2ccccc2)cc2ccccc12 [Compound 52, 2-[methyl(propan-2-yl)-amino]ethyl 6-(amino-methyl)-1-{[3-(phenyl-methanesulfonamido)-naphthalen-1-yl]methyl}-1H-pyrrolo[2,3-b]pyr-idine-2-carboxylate]
CNCCOC(=O)c1cc2ccc(CN)nc2n1Cc1cc(NS(=O)(=O)Cc2ccccc2)cc2ccccc12 [Compound 53, 2-(methylamino)ethyl 6-(aminomethyl)-1-{[3-(phenylmethanesulfon-amido)naphthalen-1-yl]-methyl}-1H-pyrrolo[2,3-b]pyridine-2-carboxylate]
